# Measurements taken from patent US20190327974A1, “SYNERGISTS FOR IMPROVED PESTICIDES” (priority 2017, published 2019).
# What was measured:
# [1] = molecular target: T1, wild-type LcαE7 (αE7 carboxylesterase) (Lucilia cuprina, UniProt Q25252); assay: Inhibition of wildtype αE7 (competition assay, hydrolysis of 4-nitrophenol butyrate), dose-response curves of FIG. 7; assay type: biochemical; conditions: 95% confidence interval in brackets; recombinant His6-tagged enzyme from E. coli, 0.5 nM; 4-nitrophenol butyrate 15 μM (= KM); room temperature, pH 7.5, 405 nm; three technical replicates
# T1 sequence (Q25252 1-570): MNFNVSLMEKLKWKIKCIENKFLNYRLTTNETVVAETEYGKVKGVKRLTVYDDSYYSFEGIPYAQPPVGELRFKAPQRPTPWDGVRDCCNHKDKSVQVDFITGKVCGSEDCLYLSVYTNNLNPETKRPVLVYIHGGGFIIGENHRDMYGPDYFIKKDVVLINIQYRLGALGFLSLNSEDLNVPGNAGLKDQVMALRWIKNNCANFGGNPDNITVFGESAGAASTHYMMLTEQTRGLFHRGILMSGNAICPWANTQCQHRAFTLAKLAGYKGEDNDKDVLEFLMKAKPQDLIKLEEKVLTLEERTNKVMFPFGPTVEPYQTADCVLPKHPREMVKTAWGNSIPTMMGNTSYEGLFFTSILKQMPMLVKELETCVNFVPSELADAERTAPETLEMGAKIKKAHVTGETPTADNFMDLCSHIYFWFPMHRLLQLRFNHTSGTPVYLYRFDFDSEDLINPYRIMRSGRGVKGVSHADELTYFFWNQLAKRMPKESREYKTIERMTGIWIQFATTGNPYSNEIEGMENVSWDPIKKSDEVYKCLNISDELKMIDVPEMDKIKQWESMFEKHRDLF
# Procedure: (§1) FIG. 7 presents dose-response curves for the inhibition of wildtype αE7. Inhibition of the hydrolysis of […] was determined for phenylboronic acid (PBA) and compounds 1-5 and 3.1-3.12. Three (technical) replicate measurements of enzyme activity were performed for each concentration of boronic acid. The concentration of boronic acid required to inhibit 50% of activity (IC50) was determined by fitting a sigmoidal sigmoidal dose-response curve to plots of percentage inhibition. The curve was constrained to 0 (bottom) and 100% (top) inhibition with a variable Hill slope. […]
# Wild-type LcαE7 was heterologously expressed in Escherichia coli and purified using metal ion affinity and size exclusion chromatography. The potency of the boronic acids was determined by enzymatic assays of recombinant LcαE7 with the model carboxylester substrate 4-nitrophenol butyrate.
# (§2) His6-tagged proteins were expressed in BL21(DE3) E. coli (Invitrogen) at 26° C. for 18 hours. Cells were collected by centrifugation, resuspended in lysis buffer (300 mM NaCl, 10 mM imidazole, 50 mM HEPES pH 7.5) and lysed by sonication. Cell debris was pelleted by centrifugation and the soluble fraction was loaded onto a HisTrap-HP Ni-Sepharose column (GE Healthcare). Bound protein was eluted with lysis buffer supplemented with 300 mM imidazole. Fractions containing the eluted protein were concentrated with a 30 kDa molecular mass cutoff centrifuge concentrator (Amicon) and loaded onto a HiLoad 26/60 Superdex-200 size-exclusion column (GE Healthcare) pre-equilibrated with 150 mM NaCl, 20 mM HEPES pH 7.5. Eluted fractions containing the monomeric protein were pooled for enzyme inhibition assays or crystallization. Protein concentration was determined by measuring the absorbance at 280 nm with an extinction coefficient calculated using the Protparam online server (Gasteiger, E. et al. Protein identification and analysis tools on the ExPASy server. Proteomics Protoc. Handb. 571-607 (2005). doi:10.1385/1-59259-890-0:571).
# (§3) Inhibition of wild-type αE7 and the Gly137Asp αE7 variant was determined by a competition assay between the native-substrate analogue 4-nitrophenol butyrate (Sigma) and the boronic acid compounds. Initially, the Michalis constant (KM) with 4-nitrophenol butyrate was measured for both enzymes to determine an appropriate concentration of substrate for use in the competition assays. Formation of the 4-nitrophenolate product of hydrolysis was monitored at 405 nm in the presence of enzyme and eight different concentrations of substrate. 4-nitrophenol butyrate was prepared in methanol to 100 mM and serially diluted 1-in-2 to achieve concentrations from 100 mM to 0.8 mM. Enzyme stocks were prepared in 4 mg/ml bovine serum albumin (Sigma) to maintain enzyme stability. Reactions were prepared by pipetting 178 μl assay buffer (100 mM NaCl, 20 mM HEPES pH 7.5) and 2 μl substrate (final concentrations of 1000 to 8 μM) into 300 μl wells of a 96-well plate. The reaction was initiated by the addition of 20 μl enzyme (final concentration 2.5 nM for wildtype αE7 and 4 nM for Gly137Asp αE7). Product formation was monitored for four minutes at room temperature using an Epoch microplate spectrophotometer (BioTek) and the initial rates of ester hydrolysis were determined by linear regression using GraphPad Prism. The Michalis constant was determined by fitting the initial rates to the Michalis-Menton equation (FIG. 10).
# (§4) Enzyme inhibition with the boronic acid compounds was determined by assaying the initial rate of 4-nitrophenol butyrate hydrolysis in the presence of either neat DMSO or the boronic acid compounds in DMSO. Compounds were prepared by serially diluting 1-in-3 an initial 10 mM stock to achieve concentrations from 10 mM to 2 nM. Reactions were prepared by pipetting 178 μl assay buffer supplemented with substrate to a final concentration equal to the KM of the enzyme (15 μM for wildtype αE7 and 250 μM for Gly137Asp αE7) into wells of a 96-well plate. […]
# [2] = molecular target: T2, Gly137Asp LcαE7 (Gly137Asp variant of αE7 carboxylesterase) (Lucilia cuprina, UniProt Q25252, G137D); assay: Inhibition of Gly137Asp αE7 (competition assay, hydrolysis of 4-nitrophenol butyrate), dose-response curves of FIG. 8; assay type: biochemical
# T2 construct: GenBank number is of the wild-type parent
# Procedure: as §1, with “FIG. 8” for “FIG. 7”, “of Glyl37Asp” for “of wildtype”, “for phenyl boronic” for “for phenylboronic”, “sigmoidal” for “sigmoidal sigmoidal”
# as §2, §3
# as §4, with “plate. 2 μl neat DMSO or 2 μl serially diluted inhibitor (final concentrations of 100 μM to 20 pM) were added to the wells. The reaction was initiated by the addition of 20 μl enzyme (final concentration 0.5 nM for wildtype αE7 and 10 nM for Glyl37Asp αE7).” for “plate.”
# T2 sequence (Q25252 entry or part of it G137D): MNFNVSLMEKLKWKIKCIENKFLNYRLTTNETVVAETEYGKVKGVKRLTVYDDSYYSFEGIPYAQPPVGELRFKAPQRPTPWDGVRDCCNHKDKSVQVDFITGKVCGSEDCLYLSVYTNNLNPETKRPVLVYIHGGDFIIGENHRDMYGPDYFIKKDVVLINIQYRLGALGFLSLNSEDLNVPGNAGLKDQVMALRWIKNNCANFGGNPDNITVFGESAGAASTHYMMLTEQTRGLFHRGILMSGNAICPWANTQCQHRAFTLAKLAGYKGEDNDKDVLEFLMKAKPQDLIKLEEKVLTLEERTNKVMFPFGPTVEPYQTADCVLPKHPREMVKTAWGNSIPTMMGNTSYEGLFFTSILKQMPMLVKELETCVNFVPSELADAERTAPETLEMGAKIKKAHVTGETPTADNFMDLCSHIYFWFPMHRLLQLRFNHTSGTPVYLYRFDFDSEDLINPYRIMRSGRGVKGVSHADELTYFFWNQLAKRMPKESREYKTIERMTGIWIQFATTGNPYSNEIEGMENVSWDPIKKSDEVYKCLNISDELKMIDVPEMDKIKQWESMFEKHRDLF
SMILES,IC50 [1],IC50 [2]
"OB(O)c1ccccc1 [PBA, phenylboronic acid, reference compound]",430 nM,880 nM
OB(O)c1cc(Br)cc2c1OCC2 [Compound 3.5],7.2 nM,850 nM
OB(O)c1cc(Br)cc(N2CCCCC2)c1 [Compound 3.3],0.97 nM,290 nM
OB(O)c1ccc2ccccc2c1 [Compound 4],15 nM,370 nM
Cc1ccc(B(O)O)cc1Br [Compound 1],25 nM,95 nM
OB(O)c1cc(Br)c2ccccc2c1F [Compound 3.6],13 nM,140 nM
OB(O)c1cc(Br)cc(OCc2ccccc2)c1 [Compound 3.9],0.91 nM,–
Cc1ccc(B(O)O)cc1OCc1ccccc1 [Compound 2],6.1 nM,57 nM
OB(O)c1cc(Br)cc(N2CCCC2)c1 [Compound 3],0.52 nM,220 nM
"OB(O)c1cc(Br)cc(Oc2ccccc2)c1 [Compound 3.10, 3-Bromo-5-phenoxyfenylboronic acid]",0.91 nM,–
CN1CCN(c2cc(Br)cc(B(O)O)c2)CC1 [Compound 3.4],7.8 nM,2000 nM
O=C(c1cc(Cl)cc(B(O)O)c1)N1CCOCC1 [Compound 3.11],12 nM,2000 nM
"OB(O)c1ccc(OCc2ccccc2F)c(Cl)c1 [Compound 5, 3-Chloro-4(2′-fluorobenzyloxy) phenylboronic acid]",22.4 nM,320 nM
"CC(C)Oc1cc(Br)cc(B(O)O)c1 [Compound 3.7, 3-Bromo-5-isopropoxyphenylboronic acid]",0.62 nM,150 nM
OB(O)c1cc(Br)cc(OC(F)(F)F)c1 [Compound 3.8],4.2 nM,210 nM
CC(C)(C)Oc1ccc(B(O)O)cc1Br [Compound 3.12],25 nM,1900 nM
OB(O)c1cc(Br)cc(N2CCOCC2)c1 [Compound 3.1],1.5 nM,840 nM
